Results reported in the CheMixHub drug solubility set.

Assay: xn = mol fraction of the nth substance listed, in the solute-free solvent

CC(CCc1ccccc1)NCC(O)c1ccc(O)c(C(N)=O)c1.Cl (configuration not stated) + CO + CC#N
solubility (g/100 g solution)
Details	288.15 K	293.15 K	298.15 K	303.15 K	308.15 K	313.15 K	318.15 K	323.15 K	328.15 K
x2 = 0.2426	0.0461	0.0674	0.0984	0.137	0.19	0.268	0.388	0.533	0.751
x2 = 0.3544	0.126	0.167	0.222	0.282	0.389	0.49	0.639	0.847	1.1
x2 = 0.4606	0.172	0.234	0.323	0.436	0.58	0.766	1.03	1.38	1.81
x2 = 0.5616	0.411	0.533	0.674	0.884	1.1	1.4	1.74	2.17	2.71
x2 = 0.6577	0.787	0.998	1.23	1.54	1.92	2.35	2.89	3.46	4.2
x2 = 0.7493	1.73	2.02	2.44	2.83	3.37	3.94	4.42	5.29	6.03
x2 = 0.8367	2.23	2.77	3.37	4.11	5.04	6.01	7.18	8.54	10.1
x2 = 0.9202	4.34	5.22	6.18	7.32	8.68	10.1	11.7	13.5	15.6

Cl.N=C(N)N + CO + CCCO
solubility (g/100 g solution)
Details	278.15 K	283.15 K	288.15 K	293.15 K	298.15 K	303.15 K	308.15 K	313.15 K	318.15 K	323.15 K
x2 = 0.1726	9.26	10.3	11.5	12.6	13.3	14.4	15.6	17	18.2	19.9
x2 = 0.4458	15.1	16.1	17.4	18.8	20.6	22	23.4	25.3	26.3	28.2
x2 = 0.6523	22.2	23.4	24.9	26.3	27.8	29.2	30.7	32.4	34.1	35.6
x2 = 0.8138	28.3	29.7	31.4	33.1	34.5	36.2	37.6	39.5	40.9	42.3
x2 = 0.9441	33.4	35.1	36.8	38.3	40.2	42.1	43.6	45.5	47.1	48.8

COC(=O)C(C)(C)N=NC(C)(C)C(=O)OC + CO + O
Details	solubility (g/100 g solution)
252.55 K, x2 = 0.692	1.72
252.85 K, x2 = 0.914	5.48
252.95 K, x2 = 0.628	1.36
253.15 K, x2 = 0.835	4.25
253.35 K, x2 = 0.511	0.455
253.45 K, x2 = 0.578	0.701
254.15 K, x2 = 0.761	2.82
254.75 K, x2 = 0.692	2.04
255.35 K, x2 = 0.628	1.61
255.55 K, x2 = 0.914	7.08
255.95 K, x2 = 0.578	0.875
255.95 K, x2 = 0.835	5.53
256.55 K, x2 = 0.511	0.546
256.65 K, x2 = 0.761	3.73
257.35 K, x2 = 0.692	3.07
257.95 K, x2 = 0.628	2.02
258.55 K, x2 = 0.578	1.31
259.05 K, x2 = 0.511	0.817
259.85 K, x2 = 0.914	9.9
260.15 K, x2 = 0.835	7.93
260.55 K, x2 = 0.761	5.93
261.05 K, x2 = 0.692	4.39
261.65 K, x2 = 0.628	2.76
262.15 K, x2 = 0.578	2.5
262.75 K, x2 = 0.511	1.35
263.35 K, x2 = 0.914	12.7
263.75 K, x2 = 0.835	9.97
263.95 K, x2 = 0.761	6.93
264.35 K, x2 = 0.692	5.15
264.85 K, x2 = 0.628	4.05
265.25 K, x2 = 0.578	3.25
265.75 K, x2 = 0.511	2.24
265.95 K, x2 = 0.914	14.4
266.15 K, x2 = 0.835	11.5
266.35 K, x2 = 0.761	8.33
267.95 K, x2 = 0.511	3.2
268.05 K, x2 = 0.628	5.71
268.05 K, x2 = 0.692	7.96
268.05 K, x2 = 0.761	9.69
268.05 K, x2 = 0.835	12.8
268.05 K, x2 = 0.914	16.6
268.25 K, x2 = 0.578	5.05
273.25 K, x2 = 0.835	20.2
273.35 K, x2 = 0.511	5.31
273.35 K, x2 = 0.578	7.79
273.35 K, x2 = 0.628	9.15
273.35 K, x2 = 0.914	26.6
273.45 K, x2 = 0.692	12.2
273.55 K, x2 = 0.761	17.3
275.55 K, x2 = 0.914	32
275.65 K, x2 = 0.511	6.38
275.65 K, x2 = 0.578	8.78
275.65 K, x2 = 0.835	25.5
275.75 K, x2 = 0.692	16.8
275.75 K, x2 = 0.761	20.5
275.85 K, x2 = 0.628	12.8
278.15 K, x2 = 0.835	32.7
278.15 K, x2 = 0.914	38.9
278.25 K, x2 = 0.761	27.3
278.35 K, x2 = 0.511	7.35
278.35 K, x2 = 0.578	10.2
278.35 K, x2 = 0.628	16
278.35 K, x2 = 0.692	21.6
280.65 K, x2 = 0.914	47.1
280.75 K, x2 = 0.692	27.6
280.75 K, x2 = 0.761	33.4
280.75 K, x2 = 0.835	39.1
280.85 K, x2 = 0.628	20.5
280.95 K, x2 = 0.578	15.1
281.05 K, x2 = 0.511	9.61
283.05 K, x2 = 0.578	21
283.05 K, x2 = 0.835	51.4
283.05 K, x2 = 0.914	55.7
283.15 K, x2 = 0.692	36.3
283.15 K, x2 = 0.761	44.2
283.45 K, x2 = 0.511	12.7
283.45 K, x2 = 0.628	28.1
285.65 K, x2 = 0.835	62.4
285.65 K, x2 = 0.914	66.9
285.75 K, x2 = 0.578	29.5
285.75 K, x2 = 0.628	39
285.75 K, x2 = 0.692	48.6
285.75 K, x2 = 0.761	56.4
285.85 K, x2 = 0.511	19.1
288.15 K, x2 = 0.578	42.6
288.15 K, x2 = 0.628	55.9
288.25 K, x2 = 0.761	71.5
288.25 K, x2 = 0.835	75.3
288.25 K, x2 = 0.914	78.2
288.35 K, x2 = 0.692	65.6
290.65 K, x2 = 0.628	77.7
290.65 K, x2 = 0.914	86.1
290.75 K, x2 = 0.692	81.5
290.75 K, x2 = 0.761	83.9
290.75 K, x2 = 0.835	85.1
293.15 K, x2 = 0.761	91.5
293.15 K, x2 = 0.835	91.5
293.15 K, x2 = 0.914	91.9
293.25 K, x2 = 0.692	91.2
293.35 K, x2 = 0.628	91.1

Nc1nccnc1Cl + CO + O
solubility (g/100 g solution)
Details	278.15 K	283.15 K	288.15 K	293.15 K	298.15 K	303.15 K	308.15 K	313.15 K	318.15 K	323.15 K
x2 = 0.05881	0.0549	0.0728	0.0951	0.118	0.143	0.169	0.195	0.225	0.254	0.284
x2 = 0.1233	0.118	0.155	0.201	0.248	0.298	0.348	0.402	0.461	0.517	0.578
x2 = 0.1942	0.209	0.274	0.352	0.433	0.519	0.604	0.695	0.795	0.89	0.996
x2 = 0.2727	0.322	0.42	0.538	0.661	0.79	0.918	1.06	1.21	1.35	1.51
x2 = 0.3599	0.423	0.542	0.697	0.868	1.06	1.24	1.44	1.66	1.86	2.1
x2 = 0.4576	0.533	0.708	0.918	1.15	1.37	1.6	1.86	2.13	2.4	2.73
x2 = 0.5675	0.656	0.886	1.15	1.42	1.7	1.98	2.31	2.65	3.02	3.44
x2 = 0.6923	0.804	1.06	1.35	1.67	1.97	2.3	2.71	3.13	3.58	4.07
x2 = 0.835	0.917	1.2	1.55	1.95	2.37	2.78	3.25	3.75	4.25	4.86

S=c1[nH]ncs1 + CO + O
solubility (g/100 g solution)
Details	278.15 K	283.15 K	288.15 K	293.15 K	298.15 K	303.15 K	308.15 K	313.15 K	318.15 K	323.15 K
x2 = 0.1	0.5	0.691	0.906	1.21	1.6	2.03	2.55	3.35	4.36	5.36
x2 = 0.2	0.926	1.24	1.54	2.06	2.68	3.38	4.35	5.66	6.96	8.64
x2 = 0.3	1.39	1.97	2.65	3.39	4.42	5.59	7.12	9.03	11.2	13.9
x2 = 0.4	2.53	3.26	4.24	5.33	6.73	8.48	10.5	13.2	16.4	19.8
x2 = 0.5	3.89	4.96	6.04	7.5	9.43	11.5	13.7	16.8	20	23.9
x2 = 0.6	5.2	6.6	8.03	9.72	11.6	14	17	19.9	23.3	27.5
x2 = 0.7	6.84	8.43	10.2	12	14.1	16.4	19.3	22.6	26.2	29.6
x2 = 0.8	8.37	10.1	11.9	13.8	16	18.5	21.4	24.6	28.2	31.5
x2 = 0.9	10.1	11.9	13.7	15.8	18	20.5	23.4	26.6	30	33.2
